# Measurements as given in patent US20250339434A1, “TREATING NEUROLOGIC DISEASES” (priority 2024, published 2025).
# “And” between values parts separate entries of the source, which are not always exact repeats. Equal values may be shown once. “Also recorded” adds a separate entry of the source. Marks after values point to notes of the source that are not given here.
# Legend:
# individuals with ASD [1] = test: Safety and tolerability in individuals with ASD; format: in vivo, human; details: vulnerable population (ASD)
# [2] = system: sFBP positive human subjects (patients) with ASD; test: Social Responsiveness Scale (SRS) scores before and after leucovorin in sFBP positive patients; format: in vivo
# Method: Turning now to FIGS. 2A-F, six figures indicate results of treatments when using the process (100) of FIG. 1. In sFBP positive human subjects (patients) started on the standard dose of leucovorin (25 mg twice a day) but in 6 of 12 (50%), the dose of leucovorin was increased to 50 mg twice a day in order to obtain an effective response as judged by the ongoing clinical evaluation. The number of days treated with leucovorin ranged from 92 to 1022 days with an average (SD) number of 584 (333) days of treatment. The graphs of FIGS. 2A-F illustrate the patients' responses using a Social Responsiveness Scale (SRS, which is known in the field, so will not be explained in detail herein). The difference in SRS scores was compared before and after the start of leucovorin treatment. The Total score decreased by 7.4 (1.4) t-score points with leucovorin treatment [F(1,44.6)=28.03, p<0.001, Cohen's d′=1.4]. The Awareness subscale decreased by 8.0 (1.9) t-score points with leucovorin treatment [F(1,45.9)=18.01, p<0.001, Cohen's d′=1.1]. The Cognition subscale decreased by 8.5 (1.8) t-score points with leucovorin treatment [F(1,45.4)=21.64, p<0.001, Cohen's d′=1.2]. The Communication subscale decreased by 8.9 (1.6) t-score points with leucovorin treatment [F(1,44.6)=31.22, p<0.001, Cohen's d′=1.4]. The Motivation subscale decreased by 6.9 (2.1) t-score points with leucovorin treatment [F(1,44.8)=10.91, p<0.01, Cohen's d′=0.9]. The Mannerisms subscale decreased by 4.3 (1.9) t-score points with leucovorin treatment [F(1,45.0)=[…], p=0.03, Cohen's d′=0.6]. To determine an estimate of the timing of the effect of leucovorin treatment, linear regression models were used to determine the change in SRS scores with each day of leucovorin treatment, as shown in FIGS. 2A-F. The Total score decreased by 0.01 (0.002) t-score points per day on leucovorin [F(1,46.6)=25.68, p<0.001]. The Awareness subscale decreased by 0.014 (0.003) t-score points per day on leucovorin [F(1,47.2)=19.74, p<0.001]. The Cognition subscale decreased by 0.013 (0.003) t-score points per day on leucovorin [F(1,47.4)=17.49, p<0.001]. The Communication subscale decreased by 0.013 (0.003) t-score points per day on leucovorin [F(1,46.2)=21.48, p<0.001]. The Motivation subscale decreased by 0.01 (0.004) t-score points per day on leucovorin [F(1,46.1)=8.27, p<0.01]. The Mannerisms subscale decreased by 0.008 (0.003) t-score points per day on leucovorin [F(1,46.2)=6.34, p=0.02].
# [3] = system: sFBP positive human subjects (patients) with ASD; test: Aberrant Behavior Checklist (ABC) scores before and after leucovorin in sFBP positive patients; format: in vivo
# Source text: FIGS. 3A-F includes six charts that indicate results of treatments when using the process (100) of FIG. 1 using the Aberrant Behavioral Checklist (ABC, which is known in the field, so will not be explained in detail herein). The patients are the same as the patients in FIGS. 2A-F. Note that the scores/scales are different in FIGS. 3A-F, but the patients are the same and measured over the same time period as FIGS. 2A-F. The difference in ABC scores was compared before and after the start of leucovorin treatment. The Total score decreased by 20.2 (5.9) raw points with leucovorin treatment [F(1,44.8)=11.92, p=0.001, Cohen's d′=0.9]. The Irritability subscale decreased by 5.7 (2.1) raw points with leucovorin treatment [F(1,44.8)=7.56, p<0.01, Cohen's d′=0.6]. […] The Stereotypy subscale decreased by 2.2 (1.0) raw points with leucovorin treatment [F(1,46.4)=4.56, p<0.05, Cohen's d′=0.5]. The Hyperactivity subscale decreased by 6.8 (1.6) raw points with leucovorin treatment [F(1,43.8)=18.34, p<0.001, Cohen's d′=1.1]. […] To get an estimate of the timing of the effect of leucovorin treatment, linear regression models were used to determine the change in ABC scores with each day of leucovorin treatment, as shown in FIGS. 3A-F. The Total score decreased by 0.04 (0.01) raw points per day on leucovorin [F(1,46.3)=12.67, p=0.001]. The Irritability subscale decreased by 0.008 (0.004) raw points per day on leucovorin [F(1,46.5)=5.33, p<0.05]. The Social-Withdrawal subscale decreased by 0.01 (0.003) raw points per day on leucovorin [F(1,44.9)=13.85, p<0.001]. The Stereotypy subscale decreased by 0.004 (0.002) raw points per day on leucovorin [F(1,48.1)=6.17, p<0.05]. The Hyperactivity subscale decreased by 0.01 (0.003) raw points per day on leucovorin [F(1,44.6)=20.56, p<0.001].
# [4] = cited from earlier work
# patients with ASD [5] = test: SRS scores in patients with ASD tested for FRAAs and sFBPs: effect of leucovorin and concurrent treatments; format: in vivo, human; details: for Association of concurrent treatment with SRS scores: concurrent treatments
# Method: (§1) In other tests, many patients with ASD were tested for FRAAs and sFBPs to guide clinical management by identifying the clinical characteristics associated with these biomarkers and to determine whether the biomarkers could predict treatment response.
# This is due to two opposing effects. It appears that those with higher binding FRAAs that were not treated with leucovorin had more severe ASD symptoms than those with low binding FRAA titers. In contrast, those with higher FRAA titers who were treated with leucovorin appear to have less severe ASD symptoms than those that were treated and had lower binding FRAA titers. […] Those patients with some of the highest binding FRAA titers can have, on average, a eight-to-sixteen point favorable response on SRS subscales, an amount that can move them into more favorable severity categories.
# FIGS. 8A-E are a collection of five charts illustrating results of factoring in a titer of binding autoantibody with the folate treatment when applied to several patients, where the results are shown on a Social Responsiveness Scale.
# (§2) The following two tables indicate some treatments and a statistically significant effect of concurrent treatments. β indicates an effectiveness on a certain outcome measure. In Table 2 and 3, a negative value for beta indicates a positive result.
# patients with ASD [6] = test: ABC scores in patients with ASD tested for FRAAs and sFBPs: effect of leucovorin and concurrent treatments; format: in vivo, human; details: for Effect on ABC Hyperactivity: concurrent treatments
# Method: as §1, §2
# individuals with ASD [7] = details: cited from earlier work
# [8] = effect size, before vs after leucovorin
# [9] = sFBP positive patients, before vs after start of leucovorin
# [10] = effect of concurrent treatment, negative beta = positive result
smiles,measurement,setting,value
"Nc1nc2c(c(=O)[nH]1)N(C=O)C(CNc1ccc(C(=O)N[C@@H](CCC(=O)O)C(=O)O)cc1)CN2 (mixture of isomers) [leucovorin, folinic acid]",Safety and tolerability,individuals with ASD [1],extremely safe and well-tolerated
same,"Cohen's d′, SRS Awareness subscale",[2]; [8],1.1
same,"Cohen's d′, SRS Cognition subscale",[2]; [8],1.2
same,"Cohen's d′, SRS Communication subscale",[2]; [8],1.4
same,"Cohen's d′, SRS Mannerisms subscale",[2]; [8],0.6
same,"Cohen's d′, SRS Motivation subscale",[2]; [8],0.9
same,"Cohen's d′, SRS Total score",[2]; [8],1.4
same,Duration of treatment necessary for the 7-point improvement in the SRS,[2]; individuals positive for sFBPs,two years
same,SRS Awareness subscale decrease per day on leucovorin,[2]; linear regression model,0.014 (0.003) t-score points per day
same,SRS Cognition subscale decrease per day on leucovorin,[2]; linear regression model,0.013 (0.003) t-score points per day
same,SRS Communication subscale decrease per day on leucovorin,[2]; linear regression model,0.013 (0.003) t-score points per day
same,SRS Mannerisms subscale decrease per day on leucovorin,[2]; linear regression model,0.008 (0.003) t-score points per day
same,SRS Motivation subscale decrease per day on leucovorin,[2]; linear regression model,0.01 (0.004) t-score points per day
same,SRS Total score decrease per day on leucovorin,[2]; linear regression model,0.01 (0.002) t-score points per day
same,SRS score decrease with leucovorin (summary),[2]; sFBP positive patients,about 7 points
same,SRS Total score decrease with leucovorin treatment,"[2]; sFBP positive patients (12), before vs after start of leucovorin 25 or 50 mg twice a day, 92 to 1022 days, value (spread)",7.4 (1.4) t-score points
same,SRS Awareness subscale decrease with leucovorin treatment,[2]; [9],8.0 (1.9) t-score points
same,SRS Cognition subscale decrease with leucovorin treatment,[2]; [9],8.5 (1.8) t-score points
same,SRS Communication subscale decrease with leucovorin treatment,[2]; [9],8.9 (1.6) t-score points
same,SRS Mannerisms subscale decrease with leucovorin treatment,[2]; [9],4.3 (1.9) t-score points
same,SRS Motivation subscale decrease with leucovorin treatment,[2]; [9],6.9 (2.1) t-score points
same,"Cohen's d′, ABC Hyperactivity subscale",[3]; [8],1.1
same,"Cohen's d′, ABC Irritability subscale",[3]; [8],0.6
same,"Cohen's d′, ABC Social Withdrawal subscale",[3]; [8],0.9
same,"Cohen's d′, ABC Stereotypy subscale",[3]; [8],0.5
same,"Cohen's d′, ABC Total score",[3]; [8],0.9
same,Duration of treatment required for the 5.7 improvement in irritability on the ABC,[3]; individuals positive for sFBPs,two years
same,ABC Hyperactivity subscale decrease per day on leucovorin,[3]; linear regression model,0.01 (0.003) raw points per day
same,ABC Inappropriate Speech subscale change per day on leucovorin,[3]; linear regression model,did not change significantly
same,ABC Irritability subscale decrease per day on leucovorin,[3]; linear regression model,0.008 (0.004) raw points per day
same,ABC Social-Withdrawal subscale decrease per day on leucovorin,[3]; linear regression model,0.01 (0.003) raw points per day
same,ABC Stereotypy subscale decrease per day on leucovorin,[3]; linear regression model,0.004 (0.002) raw points per day
same,ABC Total score decrease per day on leucovorin,[3]; linear regression model,0.04 (0.01) raw points per day
same,ABC Hyperactivity subscale decrease with leucovorin treatment,[3]; [9],6.8 (1.6) raw points
same,ABC Inappropriate Speech subscale change with leucovorin treatment,[3]; [9],did not change significantly
same,ABC Irritability subscale decrease with leucovorin treatment,[3]; [9],5.7 (2.1) raw points and 5.7 raw points
same,ABC Social Withdrawal subscale decrease with leucovorin treatment,[3]; [9],5.8 raw points
same,ABC Stereotypy subscale decrease with leucovorin treatment,[3]; [9],2.2 (1.0) raw points
same,ABC Total score decrease with leucovorin treatment,[3]; [9],20.2 (5.9) raw points
same,Absorption following oral administration,[4],rapidly absorbed
same,"SRS t-scores / ASD symptoms as binding FRAA titers increase, with leucovorin treatment",patients with ASD [5]; dependence on binding FRAA titer,less severe ASD symptoms when treated with leucovorin; also recorded: better (lower scores)
same,Favorable response on SRS subscales in patients with some of the highest binding FRAA titers,"patients with ASD [5]; on average, highest binding FRAA titers",eight-to-sixteen
same,Effect on core ASD symptoms,patients with ASD [5]; patients with ASD,improves core ASD symptoms
same,Effect on ABC Irritability,patients with ASD [6],only improved Irritability; also recorded: overall improving irritability
C[N+](C)(C)CC(O)CC(=O)[O-] (centres unmarked) [Carnitine],Effect on core ASD symptoms in two DBPC studies,individuals with ASD [7],improve core ASD symptoms
same,"β, SRS Motivation",patients with ASD [5]; [10],−2.3 (1.0)*
same,Effect on ABC Hyperactivity,patients with ASD [6],improve ABC Hyperactivity
same,Effect on ABC Hyperactivity,patients with ASD [6]; listed as carnitine,better score on ABC Hyperactivity
"C/C1=C2/[N-][C@H]([C@H](CC(N)=O)[C@@]2(C)CCC(=O)NC[C@@H](C)OP(=O)([O-])O[C@H]2[C@@H](O)[C@@H](n3cnc4cc(C)c(C)cc43)O[C@@H]2CO)[C@]2(C)N=C(/C(C)=C3N=C(/C=C4N=C1[C@@H](CCC(N)=O)C\4(C)C)[C@@H](CCC(N)=O)[C@]\3(C)CC(N)=O)[C@@H](CCC(N)=O)[C@]2(C)CC(N)=O.[CH3-].[Co+3] [mB12 SQ, Methyl-cobalamin]","β, SRS Cognition",patients with ASD [5]; [10],−4.3 (1.3)***
same,"β, SRS Motivation",patients with ASD [5]; [10],−3.2 (1.3)*
same,"β, SRS Total","patients with ASD [5]; effect of concurrent treatment, negative beta = positive result, value (spread)",−2.8 (1.1)**
same,Association of concurrent treatment with SRS scores,patients with ASD [5]; patients with ASD,"improve the SRS Total score, as well as all subscales except SRS Awareness"
same,Association of concurrent treatment with SRS scores,"patients with ASD [5]; patients with ASD, listed as mB12 Subcutaneous",better SRS scores on a few subscales
